Source: article PMC8119466, “A screen of FDA-approved drugs identifies inhibitors of protein tyrosine phosphatase 4A3 (PTP4A3 or PRL-3)” (Scientific Reports, 2021)
Structures can show the parent of a compound that is named as a salt. Where two headings read alike, the source gives them in different places.

What was measured:
Type in all cases: biochemical
recombinant PRL-1 = biological target: T1, recombinant PRL-1 (Homo sapiens, UniProt Q93096); assay: In vitro phosphatase assay (DiFMUP hydrolysis), PRL-1
T1 construct: 6xHis (N, cleaved yes); made in house; host or cells: E. coli One Shot BL21 Star
T1 sequence (Q93096 1-173): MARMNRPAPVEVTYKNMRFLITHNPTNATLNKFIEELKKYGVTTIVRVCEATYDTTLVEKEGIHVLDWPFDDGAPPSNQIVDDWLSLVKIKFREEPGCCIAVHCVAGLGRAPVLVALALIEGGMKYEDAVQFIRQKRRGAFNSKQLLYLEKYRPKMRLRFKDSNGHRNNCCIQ

recombinant PRL-2 = biological target: T2, recombinant PRL-2 (Homo sapiens, UniProt Q12974); assay: In vitro phosphatase assay (DiFMUP hydrolysis), PRL-2;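 also: PRL-2 activity read as DiFMUP hydrolysis after 20 min at room temperature with drug, enzyme first pre-reduced at 4 °C for 20 min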
T2 construct: 6xHis (N, cleaved yes); made in house; host or cells: E. coli One Shot BL21 Star
T2 sequence (Q12974 1-167): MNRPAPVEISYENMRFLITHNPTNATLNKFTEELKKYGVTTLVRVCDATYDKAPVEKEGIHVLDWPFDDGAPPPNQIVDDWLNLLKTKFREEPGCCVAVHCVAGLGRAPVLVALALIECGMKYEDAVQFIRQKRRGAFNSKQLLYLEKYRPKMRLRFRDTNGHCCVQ

recombinant PRL-3 = biological target: T3, recombinant PRL-3 (Homo sapiens, UniProt O75365); assay: In vitro phosphatase assay (DiFMUP hydrolysis), PRL-3
T3 construct: 6xHis (N, cleaved yes); made in house; host or cells: E. coli One Shot BL21 Star

[1] = FDA-approved drug screen, compared to DMSO

T3 sequence (O75365 whole entry): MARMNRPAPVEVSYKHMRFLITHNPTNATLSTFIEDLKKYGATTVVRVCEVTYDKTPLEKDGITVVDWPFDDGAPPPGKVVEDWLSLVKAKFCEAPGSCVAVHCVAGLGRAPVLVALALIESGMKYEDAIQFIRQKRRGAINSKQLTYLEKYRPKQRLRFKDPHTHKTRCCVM

SMILES | % Phosphatase Activity (compared to DMSO) PRL-1 (recombinant PRL-1; [1]) | % Phosphatase Activity (compared to DMSO) PRL-2 (recombinant PRL-2; [1]) | % Phosphatase Activity (compared to DMSO) PRL-3 (recombinant PRL-3; [1]) | also measured
Cl.O=C(OCC(O)CO)c1ccccc1Nc1ccnc2cc(Cl)ccc12 (stereo not drawn) [Glafenine HCl] | 77% | 71% | 80% | –
Cc1ccc(S(=O)(=O)NC(=O)NN2CC3CCCC3C2)cc1 (stereo not drawn) [Gliclazide] | 112% | 138% | 94% | –
CCC1=C(C)CN(C(=O)NCCc2ccc(S(=O)(=O)NC(=O)N[C@H]3CC[C@H](C)CC3)cc2)C1=O [Glimepiride] | 84% | 88% | 76% | –
Cc1cnc(C(=O)NCCc2ccc(S(=O)(=O)NC(=O)NC3CCCCC3)cc2)cn1 [Glipizide] | – | – | – | % Phosphatase Activity (compared to DMSO) PRL-1 (recombinant PRL-1): 97%; % Phosphatase Activity (compared to DMSO) PRL-2 (recombinant PRL-2): 98%; % Phosphatase Activity (compared to DMSO) PRL-3 (recombinant PRL-3): 75%
COc1ccc2c(c1)C(=O)N(CCc1ccc(S(=O)(=O)NC(=O)NC3CCCCC3)cc1)C(=O)C2(C)C [Gliquidone] | 99% | 86% | 86% | –
O=C1O[C@H](CO)[C@@H](O)[C@H](O)[C@H]1O [Gluconolactone] | 103% | 98% | 82% | –
N[C@@H](CCC(=O)N[C@@H](CS)C(=O)NCC(=O)O)C(=O)O [Glutathione] | – | – | – | % Phosphatase Activity (compared to DMSO) PRL-1 (recombinant PRL-1): 93%; % Phosphatase Activity (compared to DMSO) PRL-2 (recombinant PRL-2): 87%; % Phosphatase Activity (compared to DMSO) PRL-3 (recombinant PRL-3): 112%
COc1ccc(Cl)cc1C(=O)NCCc1ccc(S(=O)(=O)NC(=O)NC2CCCCC2)cc1 [Glyburide] | 104% | 100% | 77% | –
C[N+]1(C)CCC(OC(=O)C(O)(c2ccccc2)C2CCCC2)C1 (stereo not drawn) [Glycopyrrolate] | 108% | 101% | 82% | –
CN1C2CCCC1CC(NC(=O)c1nn(C)c3ccccc13)C2 (stereo not drawn) [Granisetron HCl] | 86% | 74% | 93% | –
COC1=CC(=O)C[C@@H](C)[C@]12Oc1c(Cl)c(OC)cc(OC)c1C2=O [Griseofulvin] | 112% | 125% | 90% | –
COc1ccccc1OCC(O)CO (stereo not drawn) [Guaifenesin] | 102% | 92% | 100% | –
N=C(N)N/N=C/c1c(Cl)cccc1Cl [Guanabenz Acetate] | 94% | 108% | 68% | –
N=C(N)NC(=O)Cc1c(Cl)cccc1Cl [Guanfacine Hydrochloride] | 103% | 84% | 96% | –
Cl.N=C(N)N [Guanidine HCl] | 103% | 108% | 86% | –
CCC(=O)O[C@]1(C(=O)CCl)[C@@H](C)C[C@H]2[C@@H]3C[C@H](F)C4=CC(=O)C=C[C@]4(C)[C@@]3(F)[C@@H](O)C[C@@]21C [Halobetasol Propionate] | 88% | 88% | 77% | –
O=C(CCCN1CCC(O)(c2ccc(Cl)cc2)CC1)c1ccc(F)cc1 [Haloperidol] | 93% | 100% | 93% | –
FC(F)(F)C(Cl)Br (stereo not drawn) [Halothane] | 102% | 95% | 79% | –
Oc1c(Cl)cc(Cl)c(Cl)c1Cc1c(O)c(Cl)cc(Cl)c1Cl [Hexachlorophene, reference compound] | -2.83% | -9% | -4% | IC50 (recombinant PRL-1; 2.5 µM protein, DiFMUP at KM, read-out: Calculated IC50, PRL-1 phosphatase activity): 31 ± 4 µM; IC50 (recombinant PRL-2; 2.5 µM protein, DiFMUP at KM, read-out: Calculated IC50, PRL-2 phosphatase activity): 35 ± 10 µM; IC50 (recombinant PRL-3; 2.5 µM protein, DiFMUP at KM, read-out: Calculated IC50, PRL-3 phosphatase activity): 13 ± 1 µM
C[N+](C)(C)CCCCCC[N+](C)(C)C [Hexamethonium Bromide] | 87% | 89% | 84% | –

SMILES | % Phosphatase Activity (compared to DMSO) PRL-1 (recombinant PRL-1; [1]) | % Phosphatase Activity (compared to DMSO) PRL-2 (recombinant PRL-2; [1]) | % Phosphatase Activity (compared to DMSO) PRL-3 (recombinant PRL-3; [1]) | also measured
CCCCCCc1ccc(O)cc1O [Hexylresorcinol] | 90% | 83% | 84% | –
Cl.Cl.NCCc1c[nH]cn1 [Histamine 2HCl] | – | – | – | % Phosphatase Activity (compared to DMSO) PRL-1 (recombinant PRL-1): 97%; % Phosphatase Activity (compared to DMSO) PRL-2 (recombinant PRL-2): 118%; % Phosphatase Activity (compared to DMSO) PRL-3 (recombinant PRL-3): 71%
C[N+]1(C)[C@@H]2CC[C@H]1C[C@@H](OC(=O)C(O)c1ccccc1)C2 (stereo partly drawn) [Homatropine Methylbromide] | 107% | 100% | 95% | –
NNc1nncc2ccccc12 [Hydralazine HCl] | – | – | – | % Phosphatase Activity (compared to DMSO) PRL-1 (recombinant PRL-1): 102%; % Phosphatase Activity (compared to DMSO) PRL-2 (recombinant PRL-2): 85%; % Phosphatase Activity (compared to DMSO) PRL-3 (recombinant PRL-3): 87%
NS(=O)(=O)c1cc2c(cc1Cl)NCNS2(=O)=O [Hydrochlorothiazide] | 97% | 122% | 76% | –
C[C@]12CCC(=O)C=C1CC[C@@H]1[C@@H]2[C@@H](O)C[C@@]2(C)[C@H]1CC[C@]2(O)C(=O)CO [Hydrocortisone] | 102% | 91% | 79% | –
CC[C@H]1CN2CC[C@H]1C[C@@H]2[C@@H](O)c1ccnc2ccc(OC)cc12 [Hydroquinidine] | 105% | 120% | 92% | –
Oc1ccc(O)cc1 [Hydroquinone] | – | – | – | % Phosphatase Activity (compared to DMSO) PRL-1 (recombinant PRL-1): 90%; % Phosphatase Activity (compared to DMSO) PRL-2 (recombinant PRL-2): 91%; % Phosphatase Activity (compared to DMSO) PRL-3 (recombinant PRL-3): 70%
CCN(CCO)CCCC(C)Nc1ccnc2cc(Cl)ccc12 (stereo not drawn) [Hydroxychloroquine Sulfate] | 96% | 100% | 100% | –
CCCCCC(=O)O[C@]1(C(C)=O)CC[C@H]2[C@@H]3CCC4=CC(=O)CC[C@]4(C)[C@H]3CC[C@@]21C [Hydroxyprogesterone caproate] | 91% | 84% | 73% | –
NC(=O)NO [Hydroxyurea] | 91% | 113% | 100% | –
CN[C@H]1C[C@@H](N)[C@H](O)[C@@H](O[C@@H]2O[C@H](CO)[C@H](O)[C@@H]3OC4(O[C@H]23)O[C@H]([C@@H](N)CO)[C@H](O)[C@H](O)[C@H]4O)[C@@H]1O (stereo partly drawn) [Hygromycin B] | 91% | 98% | 103% | –
C[C@H](Nc1ncnc2nc[nH]c12)c1cc2cccc(Cl)c2c(=O)n1-c1ccccc1 [IPI-145 (INK1197)] | 107% | 88% | 97% | –
CCCCCN(C)CCC(O)(P(=O)([O-])O)P(=O)(O)O.[Na+] [Ibandronate sodium] | 93% | 96% | 109% | –
CC(C)Cc1ccc(C(C)C(=O)O)cc1 (stereo not drawn) [Ibuprofen] | 99% | 87% | 82% | –
CCCCCCCN(CC)CCCC(O)c1ccc(NS(C)(=O)=O)cc1.CCCCCCCN(CC)CCCC(O)c1ccc(NS(C)(=O)=O)cc1.O=C(O)/C=C/C(=O)O (stereo not drawn) [Ibutilide Fumarate] | 100% | 128% | 88% | –
COc1cc(C(=O)O)ccc1NC(=O)[C@@H]1N[C@@H](CC(C)(C)C)[C@](C#N)(c2ccc(Cl)cc2F)[C@H]1c1cccc(Cl)c1F [Idasanutlin (RG-7388)] | 7% | 15% | 2% | –
O=c1[nH]c(=O)n([C@H]2C[C@H](O)[C@@H](CO)O2)cc1I [Idoxuridine] | 94% | 103% | 90% | –
O=C1C2CC3CC1CC(O)(C3)C2 [Idramantone] | 105% | 113% | 86% | –
O=P1(NCCCl)OCCCN1CCCl (stereo not drawn) [Ifosfamide] | 100% | 99% | 78% | –
